Article PMC6273431, “The Structure–Antimicrobial Activity Relationships of a Promising Class of the Compounds Containing the N-Arylpiperazine Scaffold” (Molecules, 2016)
Where two headings read alike, the source gives them in different places.

How the values were obtained:
[1] = system: Enterococcus faecalis ATCC 29212; experiment: antibacterial MIC, microtitration broth method; assay type: cell-based; settings: 37 °C
Protocol: (§1) Prior to the testing, each strain was transferred into a nutrient agar (Oxoid Limited, Basingstoke, UK), which was enriched with 5% defibrinated bovine blood.
(§2) The MICs were determined by the microtitration broth method in the cation-adjusted Mueller-Hinton broth (Becton Dickinson, Oxford, UK) according to an international interdisciplinary Clinical Laboratory Standard Institute guidelines.
(§3) The checkerboard was inoculated by the bacterial inocula, which were prepared in a phosphate buffered saline solution with the pH = 7.2–7.3 to simulate physiological pH. The final concentration of each inoculum in the final volume of 100 μL in the wells was approximately 7.5 × 10^6 CFU/mL. Drug-free controls, sterility controls and the controls consisted of the broth with DMSO were included. The determination of the results was performed visually after 24 h of static incubation in the darkness at 37 °C in an aerobic atmosphere.
(§4) To ensure reproducibility, each antibacterial MIC assay was performed triplicate on separate occasions.

[2] = system: Staphylococcus aureus ATCC 29213; experiment: antibacterial MIC, microtitration broth method; assay type: cell-based; settings: 37 °C
Protocol: as §1, §2, §3, §4

[3] = system: Escherichia coli ATCC 25922; experiment: antibacterial MIC, microtitration broth method; assay type: cell-based; settings: 37 °C
Protocol: as §1, §2, §3, §4

[4] = system: methicillin-resistant Staphylococcus aureus 63718; experiment: antibacterial MIC, microtitration broth method; assay type: cell-based; settings: MRSA, 37 °C
Protocol: as §1, §2, §3, §4

[5] = system: Candida parapsilosis CCM 8260; experiment: candidacidal MIC, microdilution method; assay type: cell-based; settings: 48 h, 37 °C
Protocol: (§5) In order to provide a look into the potential usefulness of the derivatives 5a–l as the candidates for a development of anti-yeast (candidacidal) agents, they were in vitro tested against Candida albicans CCM 8261 (CA 8261), C. krusei CCM 8271 (CK 8271) and C. parapsilosis CCM 8260 (CP 8260). The yeasts were obtained from the Czech Collection of Microorganisms (Masaryk University, Faculty of Science, Brno, Czech Republic). They were grown and kept on Sabouraud agar (Oxoid Limited, Basingstoke, UK).
(§6) For the screening, the microdilution method according to the Antimicrobial Susceptibility Testing Protocols was applied. The inoculum was prepared from the cultures grown on Sabouraud agar. With the sterile solution of NaCl, the inoculum was prepared to the 0.5 McFarland units using the Densi-La-Meter densitometer (LIAP, Riga, Latvia) and diluted a thousand‑fold with the Roswell Park Memorial Institute (RPMI) 1640 medium (Sigma-Aldrich, Darmstadt, Germany). Prepared suspension was used for an inoculation of microtitre plates. Final concentration in wells ranged from 5.0 × 10^2 CFU/mL to 2.5 × 10^3 CFU/mL. […] For the determination of the MICs, the stock solutions of all the tested compounds were diluted in the microtitre checkerboard to the final concentration varying from 128 μg/mL to 0.125 μg/mL. Drug-free control, sterility control and the control consisted of a medium and DMSO alone were included. Inoculated microtitre plates were incubated for 48 h in the darkness at 37 °C in an aerobic atmosphere. The results were estimated against static light.
(§7) The MIC was defined as the lowest concentration of the tested compound at which no visible growth was observed. To ensure reproducibility of the results, each candidacidal MIC assay was performed triplicate on separate occasions. It was important to note that all the MICs from the in vitro antimicrobial screening were expressed in μg/mL units and were available in Tables S3 and S4 (Supplementary Materials).

[6] = system: Candida albicans CCM 8261; experiment: candidacidal MIC, microdilution method; assay type: cell-based; settings: 48 h, 37 °C
Protocol: as §5, §6, §7

[7] = system: Candida krusei CCM 8271; experiment: candidacidal MIC, microdilution method; assay type: cell-based; settings: 48 h, 37 °C
Protocol: as §5, §6, §7

[8] = system: M. smegmatis ATCC 700084; experiment: antimycobacterial MIC, broth dilution micromethod; assay type: cell-based; settings: Mycolicibacterium smegmatis, ATCC700084, 72 h, 3 days at 37 °C
[9] = system: Mycobacterium avium subsp. paratuberculosis CIT03; experiment: antimycobacterial MIC, MB broth, alamarBlue; assay type: cell-based; settings: 264 h, read-out: MIC MAP
Protocol: The Mycobacterium avium subsp. paratuberculosis CIT03 strain was grown in the Middlebrook (MB) broth, supplemented with the Oleic-Albumin-Dextrose-Catalase Supplement (OADC, Becton Dickinson, Oxford, UK) and the mycobactin J (2 μg/mL). The commercially available siderophore mycobactin J reduced the incubation period of M. avium subsp. paratuberculosis in a complex medium when compared to the medium containing the mycobactin P as a growth factor.
The identification of the isolate was performed using biochemical and molecular protocols. At a log phase growth, a culture sample (10 mL) was centrifuged at 15,000 rpm/20 min using a bench top centrifuge (Model CR 4-12, Jouan Inc., London, UK). Following removal of the supernatant, the pellet was washed in fresh Middlebrook 7H9GC broth and re-suspended in fresh supplemented MB broth (10 mL). The turbidity was adjusted to match the McFarland standard No. 1 containing approximately 3.0 × 10^8 Colony Forming Units (CFU) with the MB broth. Further 1:20 dilution of the culture was performed in the MB broth. The susceptibility of given mycobacterial species was investigated in a 96-well plate format. In those experiments, sterile deionised water (300 μL) was added to all outer-perimeter wells of the plates to minimize an evaporation of the medium in the test wells during the incubation process. Each evaluated compound (100 μL) was incubated with the mycobacterial species (100 μL). The dilutions of a particular compound were prepared in triplicate. For all inspected derivatives, final concentrations ranged from 1000 μg/mL to 60 μg/mL. All compounds were prepared in dimethyl sulfoxide (DMSO; Sigma-Aldrich, Irvine, UK) and subsequent dilutions were made in the supplemented MB broth. The plates were sealed with a parafilm and incubated at 37 °C for 11 days. Following the incubation, a 10% addition of a water‑soluble dye, the alamarBlue reagent (AbD Serotec, Kidlington, UK), was mixed into each well. Absorbance readings at 570 nm and 600 nm were taken, initially for background subtraction and after 24 h re-incubation. The subtraction is necessary for strongly coloured compounds, where the colour may interfere with the interpretation of any colour change. For non-interfering compounds, a blue colour in a well was interpreted as an absence of a growth and a pink colour was scored as a growth.
The minimum inhibitory concentration (MIC) was defined as the lowest concentration of the compound at which no visible bacterial growth was observed. In other words, the MIC was the lowest concentration that prevented a visual colour change from blue to pink. The MIC value has been routinely and widely used in bacterial assays and it has been a standard detection limit according to the Clinical and Laboratory Standards Institute. The clinically used antimycobacterial drugs INH and RIF were applied as the standards.

[10] = system: M. marinum CAMP 5644; experiment: antimycobacterial MIC, broth dilution micromethod; assay type: cell-based; settings: Mycobacterium marinum, CAMP5644, 504 h, 21 days at 28 °C
[11] = system: M. kansasii DSM 44162; experiment: antimycobacterial MIC, broth dilution micromethod; assay type: cell-based; settings: Mycobacterium kansasii, DSM44162, 168 h, 7 days at 37 °C
[12] = set-up: method as in PMID 16209439, PMID 16209439; settings: potentiometric titration; cited from earlier work
[13] = set-up: method as in PMID 16209439, PMID 16209439, doi:10.2478/s11696-006-0007-y; settings: octan-1-ol/phosphate buffer (pH = 7.4); cited from earlier work
[14] = Lodderomyces parapsilosis, CCM8260
[15] = Lodderomyces parapsilosis, CCM8260, Table S4
[16] = Candida albicans, CCM8261, Table S4
[17] = Pichia kudriavzevii, CCM8271, Table S4

| Structure (SMILES) | MIC ([1]; ATCC29212, 24 h) [µM] | MIC ([1]; ATCC29212, Table S4, 24 h) [µg/mL] | MIC ([2]; ATCC29213, 24 h) [µM] | MIC ([2]; ATCC29213, Table S4, 24 h) [µg/mL] | MIC ([3]; ATCC25922, 24 h) [µM] | MIC ([3]; ATCC25922, Table S4, 24 h) [µg/mL] | MIC ([4]; 24 h) [µM] | MIC ([4]; Table S4, 24 h) [µg/mL] | MIC [5, 14] [µM] | MIC ([6]; Candida albicans, CCM8261) [µM] | MIC ([7]; Pichia kudriavzevii, CCM8271) [µM] | MIC [8] [µM] | MIC ([8]; Table S3) [µg/mL] | MIC [5, 15] [µg/mL] | MIC ([9]; 37 °C, 11 days) [µM] | MIC [9] [µg/mL] | MIC [10] [µM] | MIC ([10]; Table S3) [µg/mL] | MIC [11] [µM] | MIC ([11]; Table S3) [µg/mL] | also measured |
| --- | --- | --- | --- | --- | --- | --- | --- | --- | --- | --- | --- | --- | --- | --- | --- | --- | --- | --- | --- | --- | --- |
| CC1(C)S[C@@H]2[C@H](NC(=O)[C@H](N)c3ccccc3)C(=O)N2[C@H]1C(=O)O [AMP, ampicillin, reference compound] | > 45.8 | > 16 | 5.72 | 2 | > 45.8 | > 16 | > 45.8 | > 16 | – | – | – | – | – | – | – | – | – | – | – | – | – |
| C[C@@H]1[C@H](O)[C@@H](C)/C=C/C=C/C=C/C=C/C=C/C=C/C=C/[C@H](O[C@@H]2O[C@H](C)[C@@H](O)[C@H](N)[C@@H]2O)C[C@@H]2O[C@](O)(C[C@@H](O)C[C@@H](O)[C@H](O)CC[C@@H](O)C[C@@H](O)CC(=O)O[C@H]1C)C[C@H](O)[C@H]2C(=O)O [Amph. B, amphotericin B, reference compound] | – | – | – | – | – | – | – | – | 1.08 | 0.54 | 0.54 | – | – | – | – | – | – | – | – | – | – |
| Nc1nc(=O)[nH]cc1F [Compound 5-FC, 5-flucytosine, reference compound] | – | – | – | – | – | – | – | – | – | – | – | – | – | – | – | – | – | – | – | – | MIC [5]: 61.50 µM; MIC CP ([5]; Table S4): 8 µg/mL; MIC [6]: 7.69 µM; MIC CA ([6]; Table S4): 1 µg/mL; MIC [7]: 0.96 µM; MIC CK ([7]; Table S4): 0.125 µg/mL |
| COc1ccccc1NC(=O)OCC(O)CN1CCN(c2cccc(C(F)(F)F)c2)CC1 (stereo not shown) [Compound 5a] | > 523 | > 256 | > 523 | > 256 | > 523 | > 256 | > 523 | > 256 | > 261 | > 261 | > 261 | 523 | 256 | > 128 | 510 | 250 | 131 | 64 | 131 | 64 | MIC [6, 16]: > 128 µg/mL; MIC [7, 17]: > 128 µg/mL; pKa [12]: 5.83; log Pexp [13]: 3.57 |
| CCOc1ccccc1NC(=O)OCC(O)CN1CCN(c2cccc(C(F)(F)F)c2)CC1 (stereo not shown) [Compound 5b] | > 508 | > 256 | > 508 | > 256 | > 508 | > 256 | > 508 | > 256 | > 254 | > 254 | > 254 | 508 | 256 | > 128 | 1980 | 1000 | 127 | 64 | 127 | 64 | MIC [6, 16]: > 128 µg/mL; MIC [7, 17]: > 128 µg/mL; pKa [12]: 6.00; log Pexp [13]: 3.60 |
| COc1cccc(NC(=O)OCC(O)CN2CCN(c3cccc(C(F)(F)F)c3)CC2)c1 (stereo not shown) [Compound 5c] | > 523 | > 256 | > 523 | > 256 | > 523 | > 256 | > 523 | > 256 | > 261 | > 261 | > 261 | 523 | 256 | > 128 | 1020 | 500 | 131 | 64 | 131 | 64 | MIC [6, 16]: > 128 µg/mL; MIC [7, 17]: > 128 µg/mL; pKa [12]: 5.73; log Pexp [13]: 3.61 |
| NNC(=O)c1ccncc1 [INH, isoniazid, reference compound] | – | – | – | – | – | – | – | – | – | – | – | 117 | 16.1 | – | 1820 | 250 | 467 | 64 | – | – | – |
| CO[C@H]1/C=C/O[C@@]2(C)Oc3c(C)c(O)c4c(O)c(c(/C=N/N5CCN(C)CC5)c(O)c4c3C2=O)NC(=O)/C(C)=C\C=C\[C@H](C)[C@H](O)[C@@H](C)[C@@H](O)[C@@H](C)[C@H](OC(C)=O)[C@@H]1C [RIF, rifampicin, reference compound] | – | – | – | – | – | – | – | – | – | – | – | 19.4 | 0.125 | – | 109 | 60 | 2.43 | 0.25 | 0.15 | 0.5 | – |
